One assay deals with Chk-1 kinase (Homo sapiens (Human), UniProt O14757). Kind of assay: Chk-1 Kinase Inhibiting Activity (33P-ATP filter assay, CHKtide substrate). Type of assay: biochemical. The note with it: against Chk-1 kinase; read-out: IC50. How it is done:
Chk-1 Kinase Inhibiting Activity
The compounds of the invention were tested for activity against Chk-1 kinase using the materials and protocols set out below.
Base Reaction buffer: 20 mM Hepes (pH 7.5), 10 mM MgCl2, 1 mM EGTA, 0.02% Brij35, 0.02 mg/ml BSA, 0.1 mM Na3VO4, 2 mM DTT, 1% DMSO
*Required cofactors are added individually to each kinase reaction
(i) Prepare indicated substrate in freshly prepared Base Reaction Buffer
(ii) Deliver any required cofactors to the substrate solution above
(iii) Deliver indicated kinase into the substrate solution and gently mix
(iv) Deliver compounds in DMSO into the kinase reaction mixture
(v) Deliver ^33P-ATP (specific activity 0.01 μCi/μl final) into the reaction mixture to initiate the reaction.
(vi) Incubate kinase reaction for 120 minutes at room temperature
(vii) Reactions are spotted onto P81 ion exchange paper (Whatman #3698-915)
(viii) Wash filters extensively in 0.1% phosphoric acid.
(ix) Dry filters and measure counts in scintillation counter
Recombinant full length construct, N-terminal GST tagged, purified from insect cells.
No special measures were taken to activate this kinase.
Final concentration in assay=0.5 nM
Peptide sequence: [[…]]
Final concentration in assay=20 μM
No additional cofactors are added to the reaction mixture
From the results obtained by following the above protocol, the IC50 values against Chk-1 kinase of each of the compounds of Examples 1-153 were determined and these are shown in Table 3.

The next assay relates to MIA PaCa-2 cells. Kind of assay: Gemcitabine Combination Cell Assay (Cell Titer Glo). Type of assay: cell-based. To be noted: for IC50: Homo sapiens; for 10xLS: approximate concentration of Chk1 inhibitor that results in a 10-fold reduction in the IC50 of gemcitabine alone; for 2xLS: approximate concentration of Chk1 inhibitor that results in a two-fold reduction in the IC50 of gemcitabine alone. The method, then:
Gemcitabine Combination Cell Assay
Exponentially growing MIA PaCa-2 (ATCC CRL-1420) cells are treated with trypsin to remove cells from the plate surface. Approximately 10,000 cells/well are plated in 96 well plates in RPMI containing 10% fetal bovine serum, 1% sodium pyruvate and 1% L-GlutaMax. Cells are allowed to adhere to the plate surface overnight. Serial half-log dilutions of Chk1 inhibitor test compounds and gemcitabine are made with a final highest concentration of 3000 nM and 100 nM, respectively. Chk1 inhibitors and gemcitabine are combined so that each concentration of Chk1 inhibitor is added to each concentration of gemcitabine. Each drug is also tested as a single agent. Drugs are added to adherent cells (in duplicate) and incubated for 72 h. At 72 h the cells are treated with Promega Cell Titer Glo reagent for approximately 15 minutes. Luminescence (relative light units, RLU) is recorded using a BMG Polarstar Omega plate reader. The single agent concentration that results in a 50% reduction in total signal (IC50) is calculated using PRISM software and a four-parameter non-linear regression curve fit. For combination studies the RLUs are plotted using PRISM on an XY plot with the gemcitabine concentration on the X axis and RLU on the Y axis. The RLU for each concentration of Chk1 inhibitor is plotted as a function of gemcitabine concentration. The IC50 for gemcitabine alone and at each concentration of Chk1 is determined using a four-parameter non-linear regression curve fit. The approximate concentration of Chk1 inhibitor that results in a two and ten-fold reduction in the IC50 of gemcitabine alone is calculated as an indication of synergistic potency.
From the results obtained by following the above protocol, the IC50 values against MIAPaca-2 cells of the Chk1 inhibitor alone (Chk1 IC50), the approximate concentration of Chk1 inhibitor that results in a two-fold (2×LS) and a 10-fold (10×LS) reduction in the IC50 of gemcitabine alone of each of the compounds of Examples 1-154 are shown in Table 4.

Setting [1] is: Chk1 inhibitor alone, MIA PaCa-2 cells, 72 h, read-out: Chk1 IC50.

Structures can show the parent of a compound that is named as a salt. Where two headings read alike, the source gives them in different places. Some results are limits rather than exact numbers.

The values that follow come from patent US10010547B2 (CASCADIAN THERAPEUTICS, INC., priority 2014, dated 2018).

What is called IC50 is the concentration that gives 50% inhibition.

Chk-1 kinase, sequence (O14757 whole entry): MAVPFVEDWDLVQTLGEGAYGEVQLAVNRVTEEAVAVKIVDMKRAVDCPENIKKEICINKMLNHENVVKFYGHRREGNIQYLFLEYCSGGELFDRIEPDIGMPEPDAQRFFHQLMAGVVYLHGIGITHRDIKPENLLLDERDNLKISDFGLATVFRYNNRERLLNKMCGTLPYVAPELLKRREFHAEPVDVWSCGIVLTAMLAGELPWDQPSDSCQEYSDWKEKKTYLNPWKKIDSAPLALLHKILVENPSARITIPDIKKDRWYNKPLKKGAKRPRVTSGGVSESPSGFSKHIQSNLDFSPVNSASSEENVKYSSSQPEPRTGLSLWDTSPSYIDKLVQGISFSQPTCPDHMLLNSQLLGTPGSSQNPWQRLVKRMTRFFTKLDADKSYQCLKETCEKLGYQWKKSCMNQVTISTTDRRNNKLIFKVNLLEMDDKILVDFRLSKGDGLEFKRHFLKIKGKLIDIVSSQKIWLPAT

Turning to `COc1c(-c2cc(Nc3cnc(C#N)cn3)n[nH]2)ccc(C2CCNCC2)c1Cl` [Example 70, 5-[[5-[3-chloro-2-methoxy-4-(4-piperidyl)phenyl]-1H-pyrazol-3-yl]amino]pyrazine-2-carbonitrile], the IC50 at Chk-1 kinase is 10 nM. The IC50 in the assay with MIA PaCa-2 cells (setting [1]) came out at 2620 nM. Besides, in the assay with MIA PaCa-2 cells (MIA PaCa-2 cells, 72 h), the “10xLS” value is listed as 3000 nM and the “2xLS” value stood at 300 nM.
Take `CCN1CCCN(c2ccc(-c3cc(Nc4cnc(C#N)cn4)n[nH]3)c(OC)c2)CC1` [Example 83, 5-[[5-[4-(4-ethyl-1,4-diazepan-1-yl)-2-methoxy-phenyl]-1H-pyrazol-3-yl]amino]pyrazine-2-carbonitrile]: the IC50 on Chk-1 kinase stood at 0.11 nM. The IC50 with MIA PaCa-2 cells (setting [1]) was determined as 107 nM. Further, in the assay with MIA PaCa-2 cells (MIA PaCa-2 cells, 72 h), the “10xLS” value is reported as below 100 nM and the “2xLS” value is below 3 nM.
The corresponding values for `CC(C)Oc1cc(C2CCN(C)CC2)ccc1-c1cc(Nc2cnc(C#N)cn2)n[nH]1` [Example 38, 5-[[5-[2-isopropoxy-4-(1-methyl-4-piperidyl)phenyl]-1H-pyrazol-3-yl]amino]pyrazine-2-carbonitrile] are 0.88 nM, 2750 nM, 1000 nM and 100 nM.
Taken in the same sequence, the figures for `COc1cc(CN(C)C2CCOC2)ccc1-c1cc(Nc2cnc(C#N)cn2)n[nH]1` (centres unmarked) [Example 73, 5-[[5-[2-methoxy-4-[[methyl(tetra hydrofuran-3-yl)amino]methyl]phenyl]-1H-pyrazol-3-yl]amino]pyrazine-2-carbonitrile] were 0.28 nM, 354 nM, 300 nM and 10 nM.
Taken in the same sequence, the figures for `COc1cc(CNC2CC2)ccc1-c1cc(Nc2cnc(C#N)cn2)n[nH]1` [Example 91, 5-[[5-[4-[(cyclopropylamino)methyl]-2-methoxy-phenyl]-1H-pyrazol-3-yl]amino]pyrazine-2-carbonitrile] were 0.33 nM, 411 nM, below 100 nM and below 3 nM.
With `COc1cc(CN2CC[C@H](OC)C2)ccc1-c1cc(Nc2cnc(C#N)cn2)n[nH]1` [Example 124, 5-[[5-[2-methoxy-4-[[(3S)-3-methoxypyrrolidin-1-yl]methyl]phenyl]-1H-pyrazol-3-yl]amino]pyrazine-2-carbonitrile], the IC50 in the assay on MIA PaCa-2 cells (setting [1]) stood at 322 nM. Besides, in the assay on MIA PaCa-2 cells (MIA PaCa-2 cells, 72 h), the “10xLS” value is given as below 300 nM and the “2xLS” value was 3 nM.
Take `COc1cc(C[C@H]2CCCN2C(C)C)ccc1-c1cc(Nc2cnc(C#N)cn2)n[nH]1` [Example 151, 5-[[5-[4-[[(2R)-1-isopropylpyrrolidin-2-yl]methyl]-2-methoxy-phenyl]-1H-pyrazol-3-yl]amino]pyrazine-2-carbonitrile]: in the assay on MIA PaCa-2 cells (setting [1]), the IC50 turned out to be 101 nM. Besides, in the assay with MIA PaCa-2 cells (MIA PaCa-2 cells, 72 h), the “10xLS” value is given as below 30 nM and the “2xLS” value is reported as below 3 nM.
For `COc1cc(CNC(=O)C2CC2)ccc1-c1cc(Nc2cnc(C#N)cn2)n[nH]1` [Example 13, N-[[4-[3-[(5-cyanopyrazin-2-yl)amino]-1H-pyrazol-5-yl]-3-methoxy-phenyl]methyl]cyclopropanecarboxamide], in the assay on MIA PaCa-2 cells (setting [1]), the IC50 is above 3000 nM. In addition, in the assay with MIA PaCa-2 cells (MIA PaCa-2 cells, 72 h), the “10xLS” value is 300 nM and the “2xLS” value is around 20 nM.
For the compound `COc1cc(CN2CC[C@@H](OC)C2)ccc1-c1cc(Nc2cnc(C#N)cn2)n[nH]1` [Example 125, 5-[[5-[2-methoxy-4-[[(3R)-3-methoxypyrrolidin-1-yl]methyl]phenyl]-1H-pyrazol-3-yl]amino]pyrazine-2-carbonitrile], in the assay on MIA PaCa-2 cells (setting [1]), the IC50 is 550 nM. Further, in the assay with MIA PaCa-2 cells (MIA PaCa-2 cells, 72 h), the “10xLS” value is recorded as below 300 nM and the “2xLS” value stood at 10 nM.
`COc1cc(C2CCNCC2)ccc1-c1cc(Nc2cnc(C(=O)O)cn2)n[nH]1` [Example 45, 5-[[5-[2-methoxy-4-(4-piperidyl)phenyl]-1H-pyrazol-3-yl]amino]pyrazine-2-carboxylic acid]: the IC50 on Chk-1 kinase was above 100 nM.
Turning to `CCN1CCO[C@@H](c2ccc(-c3cc(Nc4cnc(C#N)cn4)n[nH]3)c(OC)c2)C1` [Example 120, 5-[[5-[2-methoxy-4-[(2S)-4-ethylmorpholin-2-yl]phenyl]-1H-pyrazol-3-yl]amino]pyrazine-2-carbonitrile], in the assay on MIA PaCa-2 cells (setting [1]), the IC50 came out at 397 nM. Further, in the assay with MIA PaCa-2 cells (MIA PaCa-2 cells, 72 h), the “10xLS” value was 100 nM and the “2xLS” value is recorded as 3 nM.
The corresponding values for `COc1cc([C@H]2CN(C)CCO2)ccc1-c1cc(Nc2cnc(C#N)cn2)n[nH]1` [Example 119, 5-[[5-[2-methoxy-4-[(2S)-4-methylmorpholin-2-yl]phenyl]-1H-pyrazol-3-yl]amino]pyrazine-2-carbonitrile] are 687 nM, below 300 nM and 10 nM.
As for `COc1cc(OCc2cocn2)ccc1-c1cc(Nc2cnc(C#N)cn2)n[nH]1` [Example 105, 5-[[5-[2-methoxy-4-(oxazol-4-ylmethoxy)phenyl]-1H-pyrazol-3-yl]amino]pyrazine-2-carbonitrile], in the assay on MIA PaCa-2 cells (setting [1]), the IC50 turned out to be 2300 nM. In addition, in the assay on MIA PaCa-2 cells (MIA PaCa-2 cells, 72 h), the “10xLS” value was determined as 1000 nM and the “2xLS” value is reported as 30 nM.
As for `COc1cc(C2CCCCN2C)ccc1-c1cc(Nc2cnc(C#N)cn2)n[nH]1` (centres unmarked) [Example 41, 5-[[5-[2-methoxy-4-(1-methyl-2-piperidyl)phenyl]-1H-pyrazol-3-yl]amino]pyrazine-2-carbonitrile], in the assay on MIA PaCa-2 cells (setting [1]), the IC50 came to 1110 nM. For the same compound, in the assay with MIA PaCa-2 cells (MIA PaCa-2 cells, 72 h), the “10xLS” value is 300 nM and the “2xLS” value was 30 nM.
The corresponding values for `COc1cc([C@H]2CN(C(C)C)CCO2)ccc1-c1cc(Nc2cnc(C#N)cn2)n[nH]1` [Example 150, 5-[[5-[4-[(2S)-4-isopropylmorpholin-2-yl]-2-methoxy-phenyl]-1H-pyrazol-3-yl]amino]pyrazine-2-carbonitrile] are 259 nM, 100 nM and 3 nM.
As to `CCN1CCC[C@@H]1Cc1ccc(-c2cc(Nc3cnc(C#N)cn3)n[nH]2)c(OC)c1` [Example 149, 5-[[5-[4-[[(2R)-1-ethylpyrrolidin-2-yl]methyl]-2-methoxy-phenyl]-1H-pyrazol-3-yl]amino]pyrazine-2-carbonitrile hydrochloride], in the assay on MIA PaCa-2 cells (MIA PaCa-2, 72 h, read-out: Chk1 IC50 (nM)), the IC50 came out at 188 nM. In the assay on MIA PaCa-2 cells (MIA PaCa-2 cells, 72 h), the “10xLS” value is listed as 30 nM and the “2xLS” value is on record as below 3 nM.
With `N#Cc1cnc(Nc2cc(-c3ccc(CNCc4ccccc4)cc3)[nH]n2)cn1` [Example 5, 5-{5-[4-(benzylamino-methyl)-phenyl]-1H-pyrazol-3-ylamino}-pyrazine-2-carbonitrile], the IC50 on Chk-1 kinase worked out at 2 nM.
With `CCN1CCC[C@H]1Cc1ccc(-c2cc(Nc3cnc(C#N)cn3)n[nH]2)c(OC)c1` [Example 152, 5-[[5-[4-[[(2S)-1-ethylpyrrolidin-2-yl]methyl]-2-methoxy-phenyl]-1H-pyrazol-3-yl]amino]pyrazine-2-carbonitrile], in the assay on MIA PaCa-2 cells (setting [1]), the IC50 worked out at 428 nM. Also, in the assay with MIA PaCa-2 cells (MIA PaCa-2 cells, 72 h), the “10xLS” value is 100 nM and the “2xLS” value came to 3 nM.
On to `COc1cc(CCNCc2ccccc2)ccc1-c1cc(Nc2cnc(C#N)cn2)n[nH]1` [Example 4, 5-{5-[4-(2-Benzylamino-ethyl)-2-methoxy-phenyl]-1H-pyrazol-3-ylamino}-pyrazine-2-carbonitrile hydrochloride], for which, on Chk-1 kinase, the IC50 was 0.19 nM.
`COc1cc(C[C@@H]2CCCN2C(C)C)ccc1-c1cc(Nc2cnc(C#N)cn2)n[nH]1` [Example 154, 5-[[5-[4-[[(2S)-1-isopropylpyrrolidin-2-yl]methyl]-2-methoxy-phenyl]-1H-pyrazol-3-yl]amino]pyrazine-2-carbonitrile]: the IC50 with MIA PaCa-2 cells (setting [1]) was found to be 395 nM. Also, in the assay on MIA PaCa-2 cells (MIA PaCa-2 cells, 72 h), the “10xLS” value was found to be 100 nM and the “2xLS” value is given as 3 nM.
